{"source": "ChEMBL document CHEMBL5543121", "about": "“Drug Repurposing of ACT001 to Discover Novel Promising Sulfide Prodrugs with Improved Safety and Potent Activity for Neutrophil-Mediated Antifungal Immunotherapy” (J Med Chem, 2024)", "key": {"[1]": {"biological_target": "Signal transducer and activator of transcription 3 (Homo sapiens, UniProt P40763)", "sequence (P40763 whole entry)": "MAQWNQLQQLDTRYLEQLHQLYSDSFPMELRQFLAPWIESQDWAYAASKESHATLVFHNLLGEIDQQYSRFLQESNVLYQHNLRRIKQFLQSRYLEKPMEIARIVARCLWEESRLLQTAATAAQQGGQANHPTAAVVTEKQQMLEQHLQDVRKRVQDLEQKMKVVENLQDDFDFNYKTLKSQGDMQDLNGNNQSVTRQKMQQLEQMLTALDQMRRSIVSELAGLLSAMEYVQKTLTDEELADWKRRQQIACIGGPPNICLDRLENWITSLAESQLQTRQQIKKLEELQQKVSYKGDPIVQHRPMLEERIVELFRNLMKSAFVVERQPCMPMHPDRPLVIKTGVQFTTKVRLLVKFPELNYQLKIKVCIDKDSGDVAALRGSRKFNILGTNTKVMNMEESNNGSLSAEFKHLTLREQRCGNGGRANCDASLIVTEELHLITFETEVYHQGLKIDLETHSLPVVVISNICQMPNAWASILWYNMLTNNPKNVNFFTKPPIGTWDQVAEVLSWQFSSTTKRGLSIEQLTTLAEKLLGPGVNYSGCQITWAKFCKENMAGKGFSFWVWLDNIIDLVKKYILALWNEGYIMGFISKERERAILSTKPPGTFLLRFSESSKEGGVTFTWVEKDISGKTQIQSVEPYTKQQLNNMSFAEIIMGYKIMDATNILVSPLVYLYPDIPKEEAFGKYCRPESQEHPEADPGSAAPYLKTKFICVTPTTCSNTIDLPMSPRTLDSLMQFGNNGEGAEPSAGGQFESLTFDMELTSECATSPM", "test": "Binding affinity to Cys542 residue of human recombinant STAT3 assessed as covalent modification by measuring mass shift by LC-MS/MS analysis"}, "[2]": {"tested_on": "Polymorphonuclear neutrophil", "test": "Inhibition of fungal curdlan induced PD-L1 protein expression in mouse polymorphonuclear neutrophils at 20 uM incubated for 16 hrs by ELISA", "format": "functional, cell-based"}, "[3]": {"test": "Cytotoxicity against mouse polymorphonuclear neutrophils assessed as cell viability at 20 uM incubated for 16 hrs", "format": "toxicity, cell-based", "details": "polymorphonuclear neutrophil"}}, "note": "Active and inactive are the calls of the source. The rule behind the calls is not given here."}
{"molecule": "C=C1C(=O)O[C@H]2[C@H]1CC[C@]1(C)O[C@@]13CC[C@@](C)(O)[C@H]23", "values": [{"measurement": "Activity", "setting": "[1]", "result": 265, "unit": "Da"}, {"measurement": "inhibition", "setting": "[2]", "result": "Active"}, {"measurement": "Activity", "setting": "[3]", "result": "Non-Toxic"}]}
